≈ marks a conversion by molar mass, not a printed value.
System: P388
Experiment: Cytotoxicity against mouse P388 cells after 48 hrs by MTT assay
Type: functional, cell-based
Settings: P388, 48 h

Question: `CC(=O)O[C@H]1C(=O)[C@@]2(C)[C@H]([C@H](OC(=O)c3ccccc3)[C@]3(O)C[C@H](OC(=O)[C@H](O)[C@@H](NC(=O)c4ccccc4)c4ccccc4)C(C)=C1C3(C)C)[C@]1(OC(C)=O)CO[C@@H]1C[C@@H]2O` [PACLITAXEL] was tested. Which IC50 did it give?
Answer: 0.03 µg/mL (≈ 0.0351 µM)

Question: How did the IC50 turn out when `C=C1[C@@H](O)C[C@H](OC(C)=O)[C@@]2(C)[C@@H](OC(C)=O)[C@H](OC(=O)c3ccccc3)C3=C(C)C(=O)C[C@@]3(C(C)(C)O)[C@@H](OC(C)=O)[C@H]12` [13-OXO-TAXCHININ A] was run?
Answer: 10 µg/mL (≈ 16.3 µM)

Question: With `CCC(C)CCC(=O)N[C@@H](c1ccccc1)[C@@H](O)C(=O)O[C@H]1C[C@@]2(O)[C@@H](OC(=O)c3ccccc3)[C@@H]3[C@]4(OC(C)=O)CO[C@@H]4C[C@H](O)[C@@]3(C)C(=O)[C@H](OC(C)=O)C(=C1C)C2(C)C` (stereo partly drawn) [TAXUSPINANANE A] as the molecule, how does the IC50 read?
Answer: 0.01 µg/mL (≈ 0.0116 µM)

Source: ChEMBL document CHEMBL1146407, “Taxuspinananes A and B, new taxoids from Taxus cuspidata var. nana” (J Nat Prod, 1997)
